These results are taken from PubChem BioAssay (NCI).

Among the test systems are HOP-62 NSCLC; HT29 colon; IGROV1 ovarian; LOX IMVI melanoma; MALME-3M melanoma; OVCAR-8 ovarian; SF-268 CNS; SW-620 colon; U251 CNS; HCT-116 colon.
Assay in all cases: NCI anticancer screen, dose series, 48 h

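Method: 48-hour compound exposure of cells in 96-well plates, five concentrations, linear interpolation of endpoints. GI50 = concentration required for 50% inhibition of growth. TGI denotes the concentration required for complete inhibition of growth.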 Bounds are passed on as bounds.

Regarding `CC(=O)OC12c3ccccc3-c3ccccc3C1C(C(=O)O)C2C(=O)O` (configuration not stated), the TGI with HOP-62 NSCLC was above 10 µM; in the test on HT29 colon it was above 10 µM; with IGROV1 ovarian it was above 10 µM; in the test on LOX IMVI melanoma, above 10 µM; in the test with MALME-3M melanoma it was 3.09 µM; with OVCAR-8 ovarian, above 10 µM. Further, the TGI in the test on SF-268 CNS, in the test on SW-620 colon and with U251 CNS was above 10 µM in each case.

On to `O=C1CNC(=O)c2[nH]cnc2N1`, for which the TGI in the test on HT29 colon, in the test on IGROV1 ovarian, in the test with LOX IMVI melanoma, with MALME-3M melanoma, with OVCAR-8 ovarian and in the test with SF-268 CNS was above 100 µM throughout. The TGI with SW-620 colon and in the test with U251 CNS was above 100 µM throughout.

Consider `COC(=O)C1CC(OC(C)=O)C=C2C(=O)CCC21` (configuration not stated), for which the TGI stood at 29.8 µM in the test with HCT-116 colon; 61 µM in the test with HOP-62 NSCLC; 82.6 µM in the test with IGROV1 ovarian; 63.8 µM in the test on MALME-3M melanoma; 37.6 µM in the test on OVCAR-8 ovarian; 38.8 µM with SF-268 CNS. The TGI with SW-620 colon came out at 39.4 µM; in the test with U251 CNS it was 80.9 µM.

`Cc1ccc(S(=O)(=O)C2=c3nc4ccccc4cc3=C3C(=O)c4ccccc4C(=O)C32)cc1` (configuration not stated): the TGI with HCT-116 colon, in the test on HOP-62 NSCLC, in the test on IGROV1 ovarian, in the test on LOX IMVI melanoma, with MALME-3M melanoma and with OVCAR-8 ovarian was above 100 µM throughout. For the same molecule, the TGI in the test with SF-268 CNS, in the test on SW-620 colon and in the test on U251 CNS was above 100 µM throughout.

For the molecule `O=C1C(=O)c2ccccc2C(O)=C1CCCc1ccc(C2CCCCC2)cc1`, the GI50 was 2.01 µM with HCT-116 colon; 7.2 µM in the test with HOP-62 NSCLC; 5.11 µM in the test with HT29 colon; 1.15 µM with LOX IMVI melanoma; 3.55 µM with MALME-3M melanoma; 6.01 µM with OVCAR-8 ovarian. The GI50 in the test with SF-268 CNS is 3.8 µM; in the test with SW-620 colon it was 4.36 µM; in the test on U251 CNS, 6.42 µM. Further, the TGI in the test on HCT-116 colon is 14.3 µM; with HOP-62 NSCLC it was 23 µM; with HT29 colon, above 100 µM; in the test on LOX IMVI melanoma, 12 µM; with MALME-3M melanoma it was 51 µM; in the test on OVCAR-8 ovarian it was above 100 µM. Further, the TGI was 49.6 µM with SF-268 CNS, 19.5 µM in the test on SW-620 colon and above 100 µM in the test with U251 CNS.

Take `CC(=O)NNc1nc(C)c(C(=O)/C=C/c2ccc(Cl)cc2)s1`: the TGI with HOP-62 NSCLC, in the test on HT29 colon, in the test on IGROV1 ovarian, in the test with LOX IMVI melanoma, with MALME-3M melanoma and with OVCAR-8 ovarian was above 100 µM in each case. For the same molecule, the TGI in the test on SF-268 CNS, in the test with SW-620 colon and in the test on U251 CNS was above 100 µM throughout.

Turning to `O=c1oc2cc(OC/C(=N/O)c3ccc(F)cc3)ccc2c2ccccc12`, the GI50 in the test on HCT-116 colon was 15.8 µM; in the test with HOP-62 NSCLC, 18.1 µM; in the test with HT29 colon it was 19.4 µM; in the test with IGROV1 ovarian it was 23.6 µM; in the test with MALME-3M melanoma it was 19.6 µM; with OVCAR-8 ovarian, 22.5 µM. For the same molecule, the GI50 in the test on SF-268 CNS was 21.1 µM; in the test on SW-620 colon, 23.2 µM; in the test on U251 CNS it was 20.9 µM. For the same molecule, the TGI worked out at 29.2 µM in the test on HCT-116 colon; 34.2 µM in the test on HOP-62 NSCLC; 43.2 µM with HT29 colon; 42 µM in the test with IGROV1 ovarian; 42.8 µM in the test on MALME-3M melanoma; 43.6 µM in the test on OVCAR-8 ovarian. The TGI with SF-268 CNS is 42.3 µM; in the test with SW-620 colon, 44.6 µM; in the test on U251 CNS, 45.5 µM.

For the molecule `Cc1ccc(S(=O)(=O)c2ccc(C)cc2[N+](=O)[O-])cc1`, the TGI with HCT-116 colon, with HOP-62 NSCLC, in the test with HT29 colon, in the test with IGROV1 ovarian, in the test on LOX IMVI melanoma and in the test on MALME-3M melanoma was above 100 µM throughout. The TGI in the test with SF-268 CNS, in the test on SW-620 colon and with U251 CNS was above 100 µM each time.

Regarding `COc1ccc2oc(-c3ccc(OC)c(OC)c3OC)cc(=O)c2c1`, the TGI in the test on HCT-116 colon, in the test with HOP-62 NSCLC, in the test on HT29 colon, in the test on IGROV1 ovarian, in the test on LOX IMVI melanoma and with MALME-3M melanoma was above 100 µM in each case. Besides, the TGI with SF-268 CNS and in the test on SW-620 colon was above 100 µM in each case.

`COC1CCC(OC)C(C2(C3CC(OC)CCC3OC)OC(=O)c3ccccc32)C1` (configuration not stated): the TGI with HCT-116 colon, with HOP-62 NSCLC, in the test on HT29 colon, in the test with IGROV1 ovarian, with MALME-3M melanoma and in the test with OVCAR-8 ovarian was above 100 µM each time. The TGI with SF-268 CNS, with SW-620 colon and with U251 CNS was above 100 µM throughout.

In the case of `N#C/C(=N\Nc1ccccc1)C(=O)Nc1cc(-c2ccccc2)nn1-c1ccccc1`, the GI50 is 2.14 µM with HCT-116 colon; 2.84 µM in the test with HOP-62 NSCLC; 3.2 µM with HT29 colon; 4.49 µM with IGROV1 ovarian; 2.84 µM in the test with MALME-3M melanoma; 3.25 µM in the test with OVCAR-8 ovarian. The GI50 in the test on SF-268 CNS is 3.85 µM; in the test on SW-620 colon, 3.15 µM; in the test on U251 CNS, 3.14 µM. Besides, the TGI with HCT-116 colon was above 100 µM; in the test on HOP-62 NSCLC, 49.9 µM; in the test with HT29 colon, 17.3 µM; in the test on IGROV1 ovarian it was above 100 µM; in the test with MALME-3M melanoma, above 100 µM; with OVCAR-8 ovarian, above 100 µM. Also, the TGI with SF-268 CNS was above 100 µM; in the test with SW-620 colon, above 100 µM; in the test with U251 CNS it was 16 µM.

In the case of `COc1cc(NS(C)(=O)=O)ccc1NCc1c2ccccc2nc2ccccc12`, the TGI in the test with HCT-116 colon was 36.6 µM; in the test on HT29 colon it was above 100 µM; in the test on IGROV1 ovarian it was above 100 µM; with LOX IMVI melanoma, 91.1 µM; in the test on MALME-3M melanoma, above 100 µM; in the test on OVCAR-8 ovarian it was 99.1 µM. Also, the TGI in the test on SF-268 CNS, in the test with SW-620 colon and in the test with U251 CNS was above 100 µM throughout.
